In US9056835B2, “LPA2 receptor-specific benzoic acid derivatives” (University of Tennessee Research Foundation, priority 2012, dated 2015):
Like-named read-outs stand apart in the source and are kept apart here.

Experiments:
LPA2 = LPA2 (Homo sapiens, UniProt Q9HBW0); assay: LPA receptor-mediated Ca2+ mobilization assay, LPA2 (RH7777 cells stably expressing LPA2); format: cell-based; parameters: expressed in transfected cells; details: for receptor specificity of activation among established and putative LPA GPCRs: up to 10 μM
Chain of LPA2 (Q9HBW0 whole entry): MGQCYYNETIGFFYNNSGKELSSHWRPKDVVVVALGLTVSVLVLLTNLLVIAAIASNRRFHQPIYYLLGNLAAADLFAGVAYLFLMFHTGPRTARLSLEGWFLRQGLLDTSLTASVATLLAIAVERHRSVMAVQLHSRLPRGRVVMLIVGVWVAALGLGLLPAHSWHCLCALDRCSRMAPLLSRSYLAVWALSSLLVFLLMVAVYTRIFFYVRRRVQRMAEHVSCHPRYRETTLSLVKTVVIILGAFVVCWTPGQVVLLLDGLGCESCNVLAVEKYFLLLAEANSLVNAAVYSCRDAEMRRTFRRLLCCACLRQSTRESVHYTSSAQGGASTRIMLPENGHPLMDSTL
Description: Similarity searches were performed separately using each fingerprint to quantitate similarity. Hits meeting the 80% similarity threshold from each search were ranked based on the Tanimoto coefficient measure of similarity to a target molecule NSC12404, and the top 75 unique hits from each fingerprint search were selected for further analysis. […] This selected a diverse subset of 27 compounds for biological evaluation by choosing the middle compounds in each cluster. These 27 compounds were tested in Ca^2+ mobilization assays at a concentration of 10 μM using stable cell lines individually expressing LPA2 and also in vector-transfected control cells. Hits activating LPA2 were further tested using cells expressing the other established and putative LPA GPCRs. […] They arbitrarily selected GRI977143 for further characterization in cell-based assays.
The newly-synthesized compounds were tested for their ability to induce Ca^2+ transients in RH7777 cells stably expressing the LPA2 receptor.
The cells were loaded with Fura-2-acetoxymethyl esther (Fura-2/AM) in Krebs buffer containing 0.01% pluronic acid for 30 min and rinsed with Krebs buffer before measuring Ca^2+ mobilization. The ratio of peak emissions at 510 nm after 2 min of ligand addition was determined for excitation wavelengths of 340 nm/380 nm. All samples were run in quadruplicate. […] The half maximally effective concentration (EC50), and inhibitory constant (Ki) values were calculated by fitting a sigmoid function to dose-response data points using KaleidaGraph software (version 4.1, Synergy Software; […]).
Mouse embryonic fibroblast (MEF) cells were isolated from E13.5 LPA1&2 double knockout (DKO) embryos. MEFs were transduced with empty vector or LPA2-containing lentiviruses and selected with 1.5 μg/ml puromycin. Cells were maintained in Dulbecco's modified Eagle medium (DMEM) supplemented with 10% (V/V) fetal bovine serum (FBS), 2 mM L-glutamine, 100 U/mL penicillin, and 100 μg/mL streptomycin. Serum-free medium contained 0.1% (W/V) BSA in DMEM. The rat intestinal epithelial cell line 6 (IEC-6) was obtained from the American Type Culture Collection (Rockville, Md.) at passage 13; passages 16-21 were used in all experiments. IEC-6 cells were maintained in a humidified 37° C. incubator in an atmosphere of 90% air and 10% CO2. Growth medium consisted of DMEM supplemented with 5% heat inactivated FBS, 10 μg/mL insulin, and 50 μg/mL gentamycin. The composition of the serum-starvation medium was the same as that of the full growth medium except that it contained no FBS. The McArdle rat hepatoma cell line (RH7777) stably expressing LPA2 receptors was a gift from Dr. Fumikazu Okajima (Gunma University, Maebashi, Japan). RH7777 cells stably expressing LPA1 or LPA3 receptors were generated in-house and had been characterized earlier. Wild type and LPA receptor (LPAR) stably transfected RH7777 cells were grown in DMEM supplemented with 10% FBS and 2 mM L-glutamine in the presence of 250 μg/ml G418. Chinese hamster ovary (CHO) cells stably expressing either vector or LPA4 receptor were a kind gift from Dr. Takao Shimizu (Tokyo University; Tokyo, Japan). Cells were cultured in Ham's F12 medium containing 10% FBS, 2 mM L-glutamine, and 350 μg/ml G418. Rat neuroblastoma cells (B103) were transduced with the lentivirus harboring wild type of FLAG-LPA5 and selected with puromycin to establish the stable cell lines. The stable cells were maintained in DMEM supplemented with 10% FBS and 0.4 μg/ml puromycin. GPR87- and P2Y10-expressing CHO cells and vector-transfected control cells were a gift from Dr. Norihisha Fujita (Ritsumeikan University; Shiga, Japan). The highly invasive MM1 rat hepatoma cells (gift from Dr. Michiko Mukai, Osaka University, Japan) were grown in suspension in DMEM supplemented with 10% (V/V) FBS, 2 mM L-glutamine, 100 U/mL penicillin, and 100 μg/mL streptomycin.

IEC-6 cells = assay: TNF-α/CHX-induced apoptosis, DNA fragmentation; format: cell-based, rat; details: OTP 10 μM, LPA 1 μM, GRI977143 10 μM
Description: Confluent serum-starved IEC-6 cells were treated with or without TNF-α (10 ng/ml)/cycloheximide (CHX) (20 μg/ml) in the presence of OTP (10 μM), GRI977143 (10 μM), or LPA (1 μM) for 3 h. Cells were washed twice with PBS and the quantitative DNA fragmentation assay was carried out as described previously (Valentine et al., (S)—FTY720-vinylphosphonate, an analogue of the immunosuppressive agent FTY720, is a pan-antagonist of sphingosine 1-phosphate GPCR signaling and inhibits autotaxin activity. Cell Signal (2010) 22(10): 1543-1553).
Apoptotically-challenged cells were washed twice with PBS, and a quantitative DNA fragmentation assay was carried out using a Cell Death Detection ELISA PLUS kit (Roche Diagnostics, Penzberg, Germany) and normalized to protein concentration using the BCA Protein Assay Kit (Thermo Fisher Scientific, Inc.; Rockford, Ill.) as described previously (Valentine et al., 2010). Aliquots of nuclei-free cell lysate were placed in streptavidin-coated wells and incubated with anti-histone-biotin antibody and anti-DNA peroxidase-conjugated antibody for 2 h at room temperature. After the incubation, the sample was removed, and the wells were washed and incubated with 100 μl 2,2′-azino-di[3-ethylbenzthiazolin-sulfonate substrate at room temperature before the absorbance was read at 405 nm. Results were expressed as absorbance at 405 nm/min/mg protein as detailed in our previous report (Ray et al., Mdm2 inhibition induces apoptosis in p53 deficient human colon cancer cells by activating p73- and E2F1-mediated expression of PUMA and Siva-1. Apoptosis (2011) 16(1): 35-44).

[1] = agonist, Ca2+ mobilization, read-out: LPA2 EC50

| Compound | EC50 (LPA2; [1]) [µM] | receptor specificity of activation among established and putative LPA GPCRs (LPA2) | DNA fragmentation induced by TNF-α/CHX (IEC-6 cells) | Emax (LPA2; Ca2+ transients, RH7777 cells stably expressing LPA2) [%] | EC50 (LPA2; Ca2+ transients, RH7777 cells stably expressing LPA2, read-out: EC50 (μM) (RH7777)) [µM] |
| --- | --- | --- | --- | --- | --- |
| O=C(O)c1cc(Cl)c(Cl)cc1C(=O)Nc1ccc2c(c1)C(=O)c1ccccc1-2 [Compound H2L5547924] | 2.8 | activated only LPA2 | – | – | – |
| CCCCCCCC/C=C\CCCCCCCC(=O)OC[C@@H](O)COP(=O)(O)O [LPA 18:1, Lysophosphatidic acid (18:1)] | – | – | significantly reduced | – | – |
| octadecenyl thiophosphate [OTP] | 0.336 | – | completely blocked | – | – |
| O=C(O)c1ccccc1C(=O)Nc1ccc2c(c1)C(=O)c1ccccc1-2 [NSC12404] | 9.5 | – | – | – | – |
| O=C(O)c1ccccc1C(=O)Nc1ccc2c(c1)C(=O)c1ccccc1C2=O [Compound H2L5828102] | 3.3 | activated only LPA2 | – | – | – |
| O=C(O)c1ccccc1SCCCN1C(=O)c2cccc3cccc(c23)C1=O [GRI977143] | 3.3 | activated only LPA2 | significantly reduced | 64 | 3.3 |
